Assay results reported in patent publication US8722052B2, “Vaccinia virus protein A46 peptide and use thereof” (priority 2008, dated 2014).

System: IκBα
Test: LPS-induced IκBα degradation in RAW264.7 cells, immunoblot
Type: cell-based, murine
Conditions: peptide 4 μM 1 h before 10 ng/ml LPS for 5, 15, 30 or 60 min
Description: FIGS. 25A and B are immunoblots showing the effect of A464 on LPS-induced IκBα degradation in murine RAW264.7 cells. Cells were seeded in 6-well plates at 1.5×10^5 cells/ml 24 hours prior to treatment with peptides. […] Cells were stimulated with 10 ng/ml LPS for a period of 5, 15, 30 or 60 min and then harvested on ice and lysed in 1% NP-40 containing lysis buffer. Lysates then were denatured using 5× sample buffer with DTT and resolved by SDS-PAGE. The proteins were transferred to PVDF membrane and the membrane was immunoblotted for IκBα (A). Equal protein loading was confirmed by re-probing the blot for β-actin (B). The blots shown are representative of two experiments;
RAW264.7 cells were seeded at a density of 1×10^5 cells/ml in 6 well plates. […] The protein concentration was determined by monitoring the change in the solution absorbance at 280 nm using a spectrophotometer compared to protein standards. […] Thereafter, the membranes were washed, incubated in appropriate secondary antibody and then developed using standard enhanced chemi-luminescence (ECL) reagents.
To further assay activation of NFκB, the degradation of its inhibitor IκBα, an event required for the translocation of the NFκB into the nucleus, was measured. […]

KYSFKLILAEYRRRRRRRRR [Peptide A464]
effect on LPS-induced IκBα degradation: blocked the degradation of IκBα seen at 15 and 30 min
